The target of data set [1] is T1, Gal-4CL (Homo sapiens, UniProt P56470).
T1 construct: designated as Gal-4NL (aa 1-160), and Gal-4CL (aa 169-323), respectively; made in house; host or cells: E. coli Rosetta (DE3) pLysS
T1 sequence (P56470 169-323): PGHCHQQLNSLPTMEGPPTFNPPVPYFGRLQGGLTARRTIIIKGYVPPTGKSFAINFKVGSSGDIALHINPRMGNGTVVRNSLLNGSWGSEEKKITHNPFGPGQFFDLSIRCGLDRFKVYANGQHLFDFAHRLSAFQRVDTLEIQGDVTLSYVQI
Nature of the data set: direct ELISA, binding of Gal-4CL to immobilized ASF. The conditions noted are these: read-out: apparent KD. As for the experimental part:
(§1) To design the ELISA method, we first examined the direct binding of the whole Gal-4, Gal-4NL, and Gal-4-CL to standard glycoprotein asialofetuin (ASF, MW 48.4 kDa), which carries up to nine LacNAc epitopes. The ASF was immobilized by hydrophobic interaction in microtiter-plate wells, and the binding of increasing concentrations of Gal-4 proteins was quantified by colorimetric immunodetection using horseradish peroxidase conjugated to an anti-His-tag antibody. The apparent dissociation constants (KD) were calculated from the non-linear regression of the binding curves (Figure 3). […] The Gal-4 proteins were incubated with increasing concentrations of the respective inhibitors, and the concentration-dependent inhibition of the binding to the immobilized ASF was quantified using spectrophotometric colorimetric immunodetection (HRP-conjugated anti-His-tag antibody). The respective half-maximal inhibition constants (IC50) were calculated from the non-linear regression of the sigmoidal curves (Figure 3), and they are shown in Table 2 and Table 3.
(§2) The apparent dissociation constant (KD) of binding of the whole Gal-4 or its subunits to ASF was determined using direct enzyme-linked immunosorbent assay (ELISA), with washing steps as specified above. […] Residual galectins bound to the wells were labeled with anti-His-antibody conjugated with HRP, and evaluated as above.

Data set [2] has as its target T2, Gal-4 (Homo sapiens, UniProt P56470).
T2 construct: made in house; host or cells: Escherichia coli Rosetta (DE3) pLysS
T2 sequence (P56470 1-323): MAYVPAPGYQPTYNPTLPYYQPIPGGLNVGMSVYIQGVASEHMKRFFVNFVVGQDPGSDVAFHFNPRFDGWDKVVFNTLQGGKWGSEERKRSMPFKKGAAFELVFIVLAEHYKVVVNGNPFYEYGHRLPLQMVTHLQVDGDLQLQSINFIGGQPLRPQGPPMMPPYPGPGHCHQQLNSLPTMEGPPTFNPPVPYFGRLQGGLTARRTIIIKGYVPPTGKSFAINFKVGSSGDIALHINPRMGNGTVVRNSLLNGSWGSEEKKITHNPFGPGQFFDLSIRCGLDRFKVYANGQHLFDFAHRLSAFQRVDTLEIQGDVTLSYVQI
The data set is described as follows: direct ELISA, binding of whole Gal-4 to immobilized ASF. The note with it: read-out: apparent KD. The method, then: as §1, §2
On the technique in general: In an ELISA, binding on a coated surface is turned into a signal by an enzyme label.

The target in data set [3] is T3, Gal-4NL (Homo sapiens, UniProt P56470).
T3 construct: designated as Gal-4NL (aa 1-160), and Gal-4CL (aa 169-323), respectively; made in house; host or cells: E. coli Rosetta (DE3) pLysS
T3 sequence (P56470 1-160): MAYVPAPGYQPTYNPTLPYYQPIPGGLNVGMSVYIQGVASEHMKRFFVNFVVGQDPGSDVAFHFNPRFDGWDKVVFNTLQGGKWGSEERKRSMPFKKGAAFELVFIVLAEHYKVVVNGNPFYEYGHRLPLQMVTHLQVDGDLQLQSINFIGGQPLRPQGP
The data set is described as follows: direct ELISA, binding of Gal-4NL to immobilized ASF. The note with it: read-out: apparent KD. The method, then:
as §1, §2

In data set [4] the target is T2, Gal-4. The data set is described as follows: competitive ELISA, inhibition of binding of whole Gal-4 to immobilized ASF. The method, then:
(§3) To design the ELISA method, we first examined the direct binding of the whole Gal-4, Gal-4NL, and Gal-4-CL to standard glycoprotein asialofetuin (ASF, MW 48.4 kDa), which carries up to nine LacNAc epitopes. The ASF was immobilized by hydrophobic interaction in microtiter-plate wells, and the binding of increasing concentrations of Gal-4 proteins was quantified by colorimetric immunodetection using horseradish peroxidase conjugated to an anti-His-tag antibody. The apparent dissociation constants (KD) were calculated from the non-linear regression of the binding curves (Figure 3). […] While for the Gal-4 ELISA measurement we used the concentration of Gal-4 of 2.5 μM, for both subunits, it was 25 μM. […] The Gal-4 proteins were incubated with increasing concentrations of the respective inhibitors, and the concentration-dependent inhibition of the binding to the immobilized ASF was quantified using spectrophotometric colorimetric immunodetection (HRP-conjugated anti-His-tag antibody). The respective half-maximal inhibition constants (IC50) were calculated from the non-linear regression of the sigmoidal curves (Figure 3), and they are shown in Table 2 and Table 3.
(§4) Each incubation step was followed by washing the wells with 3 × 250 µL phosphate-buffered saline (PBS) containing 0.05% Tween® 20. In total, 0.1 µM ASF in PBS (50 µL/well) was coated onto microtiter plates (Nunc Immuno Sorb, ThermoFisher Scientific, Waltham, MA, USA) overnight. After blocking the wells with 2 mg/mL bovine serum albumin (BSA) in PBS buffer (250 µL/well, 1 h), serial dilutions of the inhibitors in PBS buffer containing 2 mM EDTA (EPBS) were incubated with Gal-4 (2.5 µM final dimer concentration) or its subunits, Gal-4CL and Gal-4NL (25 µM final monomer concentration) for 2 h (50 µL/well). The residual bound galectin was labeled with an anti-His-antibody conjugated with horseradish peroxidase (HRP) (Santa Cruz Biotechnology, Heidelberg, Germany; 1:999 dilution in PBS). The colorimetric reaction with TMB One substrate solution (Kem-En-Tec, Taastrup, Denmark; 50 µL/well) was stopped with 3 M hydrochloric acid (HCl) (50 µL/well) and quantified spectrophotometrically at 450 nm (Sunrise; Tecan Group Ltd., Männedorf, Switzerland). The values of half-maximal inhibitory concentrations (IC50) were calculated by non-linear regression (dose–response inhibition-variable slope) of sigmoidal curves from a minimum of three independent experiments using GraphPad Prism 8.4.3 (GraphPad Software, San Diego, CA, USA).

In data set [5] the target is T3, Gal-4NL. Nature of the data set: competitive ELISA, inhibition of binding of Gal-4NL subunit to immobilized ASF. As for the experimental part:
as §3, §4

Data set [6] addresses Gal-4NL. Details: method as in PMID 33968903. The note with it: ITC; cited from earlier work. (In general: Isothermal titration calorimetry measures the heat released or taken up as one component is titrated into another.)
For data set [7], the target named is T1, Gal-4CL. The data set is described as follows: competitive ELISA, inhibition of binding of Gal-4CL subunit to immobilized ASF. As for the experimental part: as §3, §4
Data set [8] has as its target T4, asialofetuin (standard glycoprotein, MW 48.4 kDa) (UniProt P12763 19-359, glycoprotein without sialic acid; carries up to nine LacNAc epitopes).
T4 construct: Asialofetuin (desialylated fetuin), MW 48.4 kDa; Commercial asialofetuin is commonly from fetal calf serum; also called ASF
T4 sequence (looked up): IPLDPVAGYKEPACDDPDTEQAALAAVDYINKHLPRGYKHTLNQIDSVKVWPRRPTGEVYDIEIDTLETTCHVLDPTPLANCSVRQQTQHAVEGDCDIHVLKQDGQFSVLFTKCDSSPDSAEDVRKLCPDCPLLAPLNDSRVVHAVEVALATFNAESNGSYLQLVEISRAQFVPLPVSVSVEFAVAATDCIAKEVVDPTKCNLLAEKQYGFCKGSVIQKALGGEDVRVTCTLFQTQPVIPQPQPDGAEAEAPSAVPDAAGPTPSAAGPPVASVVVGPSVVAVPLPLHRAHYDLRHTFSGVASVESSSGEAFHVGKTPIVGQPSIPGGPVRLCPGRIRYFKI
The data set is described as follows: ELISA; direct ELISA; ASF (0.1 µM in PBS) coated on microtiter plate overnight, blocked with BSA; increasing concentrations of Gal-4 or its subunits, 2 h; detected with HRP-conjugated anti-His antibody; apparent KD from non-linear regression. The note with it: both partners purified.

Data set [9] concerns the molecule itself. The data set is described as follows: dynamic light scattering; Gal-4 and its subunits at 25 µM, 25 °C, Zetasizer Nano S90; size distribution by intensity and by volume.

As to asialofetuin [ASF], the Kd with Gal-4CL [1] was found to be 19 ± 2 µM; with Gal-4 [2], 3.3 ± 1.1 µM; with Gal-4NL [3], 38 ± 3 µM.

In general, IC50 refers to the concentration that inhibits the measured activity by half. A low value points to higher potency. Consider `C[C@@H]1O[C@@H](O[C@H]2[C@H](O[C@H]3[C@H](O)[C@@H](O)C(O)O[C@@H]3CO)O[C@H](CO)[C@H](O)[C@@H]2O[C@H]2O[C@H](CO)[C@H](O)[C@H](O)[C@H]2O)[C@@H](O)[C@H](O)[C@@H]1O` (stereo partly drawn) [blood-group antigen B (6), blood-group antigen B type 6], for which the IC50 on Gal-4 [4] (competitive ELISA, Gal-4 2.5 µM, immobilized ASF) is 80 ± 30 µM; at Gal-4NL [5] (competitive ELISA, Gal-4NL 25 µM, immobilized ASF), 260 ± 10 µM; at Gal-4CL [7] (competitive ELISA, Gal-4CL 25 µM, immobilized ASF), 300 ± 30 µM. For the same molecule, the “rp, relative potency (IC50 (lactose)/IC50 (ligand))” value at Gal-4 [4] (whole Gal-4) stood at 31. Also, the “rp Gal-4NL, relative potency (IC50 (lactose)/IC50 (ligand))” value at Gal-4NL [5] (Gal-4NL) was found to be 11. Besides, the Kd at Gal-4NL [6] was 51 µM. Also, the “rp Gal-4CL, relative potency (IC50 (lactose)/IC50 (ligand))” value at Gal-4CL [7] (Gal-4CL) was 28.

B1: C-terminal subunit of Gal-4 with 10 linker residues (Gal-4CL, aa 169-323) (domain or fragment, human, UniProt P56470 169-323, looked up)
chain: PGHCHQQLNSLPTMEGPPTFNPPVPYFGRLQGGLTARRTIIIKGYVPPTGKSFAINFKVGSSGDIALHINPRMGNGTVVRNSLLNGSWGSEEKKITHNPFGPGQFFDLSIRCGLDRFKVYANGQHLFDFAHRLSAFQRVDTLEIQGDVTLSYVQI
notes: Galectin-4, human, C-terminal CRD (aa 179-323) with 10 further residues of the inter-domain linker at the N-terminus (aa 169-323); made by PCR from the Gal-4 plasmid, NdeI/XhoI; not shown: His6, N-terminal, kept
For B1, in data set [8], the Kd was determined as 19 ± 2 µM. Also, the binding result in [9] is “binds”.
